Laboratory results taken from patent US9663519B2, “Compounds useful as inhibitors of ATR kinase” (Vertex Pharmaceuticals Incorporated, priority 2013, dated 2017).

Experiments:
full-length ATR = full-length ATR (Homo sapiens (Human), UniProt Q13535); experiment: ATR Inhibition Assay (radioactive-phosphate incorporation); format: biochemical; settings: Ki(app); 5 nM full-length ATR, 10 μM ATP, 25° C.
Method: Compounds were screened for their ability to inhibit ATR kinase using a radioactive-phosphate incorporation assay. Assays were carried out in a mixture of 50 mM Tris/HCl (pH 7.5), 10 mM MgCl2 and 1 mM DTT. Final substrate concentrations were 10 μM [γ-33P]ATP (3 mCi 33P ATP/mmol ATP, Perkin Elmer) and 800 μM target peptide (ASELPASQPQPFSAKKK (SEQ. ID NO: 1)).
Assays were carried out at 25° C. in the presence of 5 nM full-length ATR. An assay stock buffer solution was prepared containing all of the reagents listed above, with the exception of ATP and the test compound of interest. 13.5 μL of the stock solution was placed in a 96 well plate followed by addition of 2 μL of DMSO stock containing serial dilutions of the test compound (typically starting from a final concentration of 15 μM with 3-fold serial dilutions) in duplicate (final DMSO concentration 7%). The plate was pre-incubated for 10 minutes at 25° C. and the reaction initiated by addition of 15 μL [γ-33P]ATP (final concentration 10 μM).
The reaction was stopped after […] by the addition of 30 μL 0.1M phosphoric acid containing 2 mM ATP. A multiscreen phosphocellulose filter 96-well plate (Millipore, Cat no. MAPHN0B50) was pretreated with 100 μL 0.2M phosphoric acid prior to the addition of 45 μL of the stopped assay mixture. The plate was washed with 5×200 μL 0.2M phosphoric acid. After drying, 100 μL Optiphase ‘SuperMix’ liquid scintillation cocktail (Perkin Elmer) was added to the well prior to scintillation counting (1450 Microbeta Liquid Scintillation Counter, Wallac).
After removing mean background values for all of the data points, Ki(app) data were calculated from non-linear regression analysis of the initial rate data using the Prism software package (GraphPad Prism version 3.0cx for Macintosh, GraphPad Software, San Diego Calif., USA).

[1] = test system: HCT116 colorectal cancer cells; experiment: Cisplatin Sensitization Assay (96 h cell viability MTS); format: cell-based; settings: Cisplatin sensitization value: concentration of compound required to reduce the IC50 of Cisplatin alone by at least 3-fold; HCT116, 96 h MTS
Method: Compounds can be screened for their ability to sensitize HCT116 colorectal cancer cells to Cisplatin using a 96 h cell viability (MTS) assay. […] Compounds and Cisplatin are then both added simultaneously to the cell media in 2-fold serial dilutions from a top final concentration of 10 μM as a full matrix of concentrations in a final cell volume of 200 μl, and the cells are then incubated at 37° C. in 5% CO2. After 96 h, 40 μl of MTS reagent (Promega G358a) is added to each well and the cells are incubated for 1 h at 37° C. in 5% CO2. Finally, absorbance is measured at 490 nm using a SpectraMax Plus 384 reader (Molecular Devices) and the concentration of compound required to reduce the IC50 of Cisplatin alone by at least 3-fold (to 1 decimal place) can be reported.

full-length ATR, sequence (Q13535 whole entry): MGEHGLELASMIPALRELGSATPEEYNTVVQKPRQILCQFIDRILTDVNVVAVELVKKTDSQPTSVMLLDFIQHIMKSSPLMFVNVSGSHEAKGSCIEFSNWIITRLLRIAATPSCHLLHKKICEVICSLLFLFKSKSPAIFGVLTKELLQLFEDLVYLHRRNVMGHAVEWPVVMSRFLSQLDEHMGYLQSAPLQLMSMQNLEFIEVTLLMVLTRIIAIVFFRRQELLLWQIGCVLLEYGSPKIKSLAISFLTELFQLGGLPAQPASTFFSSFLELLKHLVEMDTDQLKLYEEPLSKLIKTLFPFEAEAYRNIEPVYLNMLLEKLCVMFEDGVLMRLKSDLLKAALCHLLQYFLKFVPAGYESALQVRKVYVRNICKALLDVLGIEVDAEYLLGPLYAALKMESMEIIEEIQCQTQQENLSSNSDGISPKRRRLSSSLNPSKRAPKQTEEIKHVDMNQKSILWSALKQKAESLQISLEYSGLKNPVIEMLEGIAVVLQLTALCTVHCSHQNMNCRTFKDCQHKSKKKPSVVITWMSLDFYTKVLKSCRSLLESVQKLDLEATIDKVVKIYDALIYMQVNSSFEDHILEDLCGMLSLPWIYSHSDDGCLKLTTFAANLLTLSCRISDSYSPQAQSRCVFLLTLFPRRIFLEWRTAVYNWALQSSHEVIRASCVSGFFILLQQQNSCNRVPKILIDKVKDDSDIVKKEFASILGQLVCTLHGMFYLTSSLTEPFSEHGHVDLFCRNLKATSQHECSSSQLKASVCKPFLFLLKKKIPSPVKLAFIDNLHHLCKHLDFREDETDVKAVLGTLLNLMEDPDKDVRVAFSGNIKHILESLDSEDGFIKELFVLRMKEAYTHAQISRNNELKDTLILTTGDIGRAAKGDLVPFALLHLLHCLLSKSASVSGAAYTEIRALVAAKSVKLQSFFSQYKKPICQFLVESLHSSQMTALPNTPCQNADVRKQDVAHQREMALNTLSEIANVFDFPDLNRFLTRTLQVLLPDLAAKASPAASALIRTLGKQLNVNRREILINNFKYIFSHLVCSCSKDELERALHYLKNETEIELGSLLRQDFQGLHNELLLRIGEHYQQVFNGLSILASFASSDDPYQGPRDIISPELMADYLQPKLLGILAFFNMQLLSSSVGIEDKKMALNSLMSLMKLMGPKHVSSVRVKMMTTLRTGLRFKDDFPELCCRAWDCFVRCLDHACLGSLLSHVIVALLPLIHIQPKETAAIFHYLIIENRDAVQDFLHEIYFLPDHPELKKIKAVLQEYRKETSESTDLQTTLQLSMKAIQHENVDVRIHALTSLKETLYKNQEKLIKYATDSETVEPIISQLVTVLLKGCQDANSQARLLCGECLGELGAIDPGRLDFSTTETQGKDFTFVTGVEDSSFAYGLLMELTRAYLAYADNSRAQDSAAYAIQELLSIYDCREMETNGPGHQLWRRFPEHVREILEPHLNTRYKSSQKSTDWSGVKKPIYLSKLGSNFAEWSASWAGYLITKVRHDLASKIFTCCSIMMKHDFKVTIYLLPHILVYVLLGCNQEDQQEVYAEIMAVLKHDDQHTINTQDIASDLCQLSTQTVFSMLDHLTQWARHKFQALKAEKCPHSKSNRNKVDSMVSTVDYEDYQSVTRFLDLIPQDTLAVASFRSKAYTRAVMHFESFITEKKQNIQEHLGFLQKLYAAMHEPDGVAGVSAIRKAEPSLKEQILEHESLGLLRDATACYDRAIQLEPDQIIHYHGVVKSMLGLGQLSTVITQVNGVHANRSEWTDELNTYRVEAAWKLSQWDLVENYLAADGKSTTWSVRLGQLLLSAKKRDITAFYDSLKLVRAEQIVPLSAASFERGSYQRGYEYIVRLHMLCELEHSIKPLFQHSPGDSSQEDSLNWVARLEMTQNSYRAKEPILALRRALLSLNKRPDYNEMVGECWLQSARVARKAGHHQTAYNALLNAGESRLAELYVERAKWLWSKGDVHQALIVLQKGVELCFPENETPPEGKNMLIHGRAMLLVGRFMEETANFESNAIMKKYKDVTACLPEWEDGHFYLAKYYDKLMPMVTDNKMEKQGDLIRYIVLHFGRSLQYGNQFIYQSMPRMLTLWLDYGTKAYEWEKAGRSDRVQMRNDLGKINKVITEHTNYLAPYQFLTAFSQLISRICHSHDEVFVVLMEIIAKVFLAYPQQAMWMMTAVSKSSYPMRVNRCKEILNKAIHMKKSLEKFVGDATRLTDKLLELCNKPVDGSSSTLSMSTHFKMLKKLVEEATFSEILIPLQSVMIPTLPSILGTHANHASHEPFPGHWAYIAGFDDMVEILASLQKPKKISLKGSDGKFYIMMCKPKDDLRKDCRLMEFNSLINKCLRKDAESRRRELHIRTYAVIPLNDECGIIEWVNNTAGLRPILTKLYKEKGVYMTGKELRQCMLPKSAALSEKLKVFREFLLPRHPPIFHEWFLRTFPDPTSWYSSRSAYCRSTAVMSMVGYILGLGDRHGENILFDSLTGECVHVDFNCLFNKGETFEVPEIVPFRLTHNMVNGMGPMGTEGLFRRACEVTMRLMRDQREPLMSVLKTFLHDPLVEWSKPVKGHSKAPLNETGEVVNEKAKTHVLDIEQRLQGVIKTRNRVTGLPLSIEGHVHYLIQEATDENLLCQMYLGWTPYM

Row | Ki (full-length ATR) | SMILES | Synergy with Cisplatin [1]
1 | 10 to 1000 nM | COc1c(Cl)cncc1NC(=O)c1c(N)nn2cc3c(nc12)CCNC3 [Compound I-5, 2-amino-N-(5-chloro-4-methoxypyridin-3-yl)-5,6,7,8-tetrahydropyrazolo[1,5-a]pyrido[4,3-d]pyrimidine-3-carboxamide] | ++ (Cisplatin sensitization value >0.02 μM but <0.2 μM)
2 | 10 to 1000 nM | COc1ccncc1NC(=O)c1c(N)nn2cc3c(nc12)CCN(C1COC1)C3 [Compound I-24, 2-amino-N-(4-methoxypyridin-3-yl)-7-(oxetan-3-yl)-5,6,7,8-tetrahydropyrazolo[1,5-a]pyrido[4,3-d]pyrimidine-3-carboxamide] | ++ (Cisplatin sensitization value >0.02 μM but <0.2 μM)
3 | 10 to 1000 nM | COc1cc(Cl)ncc1NC(=O)c1c(N)nn2cc3c(nc12)CCN(C1COC1)C3 [Compound I-25, 2-amino-N-(6-chloro-4-methoxypyridin-3-yl)-7-(oxetan-3-yl)-5,6,7,8-tetrahydropyrazolo[1,5-a]pyrido[4,3-d]pyrimidine-3-carboxamide] | ++ (Cisplatin sensitization value >0.02 μM but <0.2 μM)
4 | 10 to 1000 nM | CC(C)Oc1ncncc1NC(=O)c1c(N)nn2cc3c(nc12)CCN(C)C3 [Compound I-16, 2-amino-N-(4-isopropoxypyrimidin-5-yl)-7-methyl-5,6,7,8-tetrahydropyrazolo[1,5-a]pyrido[4,3-d]pyrimidine-3-carboxamide] | ++ (Cisplatin sensitization value >0.02 μM but <0.2 μM)
5 | 10 to 1000 nM | Nc1nn2cc3c(nc2c1C(=O)Nc1cncc(F)c1C1CC1)CCN(C1COC1)C3 [Compound I-22, 2-amino-N-(4-cyclopropyl-5-fluoropyridin-3-yl)-7-(oxetan-3-yl)-5,6,7,8-tetrahydropyrazolo[1,5-a]pyrido[4,3-d]pyrimidine-3-carboxamide] | ++ (Cisplatin sensitization value >0.02 μM but <0.2 μM)
6 | 10 to 1000 nM | Cn1cncc1-c1ccncc1NC(=O)c1c(N)nn2cc3c(nc12)CCN(C1COC1)C3 [Compound I-32, 2-amino-N-(4-(1-methyl-1H-imidazol-5-yl)pyridin-3-yl)-7-(oxetan-3-yl)-5,6,7,8-tetrahydropyrazolo[1,5-a]pyrido[4,3-d]pyrimidine-3-carboxamide] | 
7 | 10 to 1000 nM | Cc1nsc(NC(=O)c2c(N)nn3cc4c(nc23)CCN(C2COC2)C4)c1C1CC1 [Compound I-33, 2-amino-N-(4-cyclopropyl-3-methylisothiazol-5-yl)-7-(oxetan-3-yl)-5,6,7,8-tetrahydropyrazolo[1,5-a]pyrido[4,3-d]pyrimidine-3-carboxamide] | +++ (Cisplatin sensitization value of <0.02 μM)
8 | 10 to 1000 nM | COc1ncncc1NC(=O)c1c(N)nn2cc3c(nc12)CCN(C1COC1)C3 [Compound I-27, 2-amino-N-(4-methoxypyrimidin-5-yl)-7-(oxetan-3-yl)-5,6,7,8-tetrahydropyrazolo[1,5-a]pyrido[4,3-d]pyrimidine-3-carboxamide] | ++ (Cisplatin sensitization value >0.02 μM but <0.2 μM)
9 | 10 to 1000 nM | CN1CCc2nc3c(C(=O)Nc4cnccc4OC4COC4)c(N)nn3cc2C1 [Compound I-14, 2-amino-7-methyl-N-(4-(oxetan-3-yloxy)pyridin-3-yl)-5,6,7,8-tetrahydropyrazolo[1,5-a]pyrido[4,3-d]pyrimidine-3-carboxamide] | ++ (Cisplatin sensitization value >0.02 μM but <0.2 μM)
10 | 10 to 1000 nM | COc1ccncc1NC(=O)c1c(N)nn2cc3c(nc12)CCN(C)C3 [Compound I-13, 2-amino-N-(4-methoxypyridin-3-yl)-7-methyl-5,6,7,8-tetrahydropyrazolo[1,5-a]pyrido[4,3-d]pyrimidine-3-carboxamide] | ++ (Cisplatin sensitization value >0.02 μM but <0.2 μM)
11 | 10 to 1000 nM | Cc1ccncc1NC(=O)c1c(N)nn2cc3c(nc12)CCN(C1COC1)C3 [Compound I-20, 2-amino-N-(4-methylpyridin-3-yl)-7-(oxetan-3-yl)-5,6,7,8-tetrahydropyrazolo[1,5-a]pyrido[4,3-d]pyrimidine-3-carboxamide] | ++ (Cisplatin sensitization value >0.02 μM but <0.2 μM)
12 | 10 to 1000 nM | Nc1nn2cc3c(nc2c1C(=O)Nc1cnccc1-c1ccccc1)CCN(C1COC1)C3 [Compound I-23, 2-amino-7-(oxetan-3-yl)-N-(4-phenylpyridin-3-yl)-5,6,7,8-tetrahydropyrazolo[1,5-a]pyrido[4,3-d]pyrimidine-3-carboxamide] | 
13 | 10 to 1000 nM | CN1CCc2nc3c(C(=O)Nc4cncc(F)c4C4CC4)c(N)nn3cc2C1 [Compound I-12, 2-amino-N-(4-cyclopropyl-5-fluoropyridin-3-yl)-7-methyl-5,6,7,8-tetrahydropyrazolo[1,5-a]pyrido[4,3-d]pyrimidine-3-carboxamide] | ++ (Cisplatin sensitization value >0.02 μM but <0.2 μM)
14 | 10 to 1000 nM | CC(C)Oc1ncncc1NC(=O)c1c(N)nn2cc3c(nc12)CCNC3 [Compound I-10, 2-amino-N-(4-isopropoxypyrimidin-5-yl)-5,6,7,8-tetrahydropyrazolo[1,5-a]pyrido[4,3-d]pyrimidine-3-carboxamide] | ++ (Cisplatin sensitization value >0.02 μM but <0.2 μM)
15 | 10 to 1000 nM | Nc1nn2cc3c(nc2c1C(=O)Nc1cnccc1C1CC1)CCN(C1COC1)C3 [Compound I-21, 2-amino-N-(4-cyclopropylpyridin-3-yl)-7-(oxetan-3-yl)-5,6,7,8-tetrahydropyrazolo[1,5-a]pyrido[4,3-d]pyrimidine-3-carboxamide] | ++ (Cisplatin sensitization value >0.02 μM but <0.2 μM)
16 | 10 to 1000 nM | CN1CCc2nc3c(C(=O)Nc4cnccc4OCC(F)(F)F)c(N)nn3cc2C1 [Compound I-30, 2-amino-7-methyl-N-(4-(2,2,2-trifluoroethoxy)pyridin-3-yl)-5,6,7,8-tetrahydropyrazolo[1,5-a]pyrido[4,3-d]pyrimidine-3-carboxamide] | +++ (Cisplatin sensitization value of <0.02 μM)
17 | 10 to 1000 nM | CN1CCc2nc3c(C(=O)Nc4cncnc4C4CC4)c(N)nn3cc2C1 [Compound I-15, 2-amino-N-(4-cyclopropylpyrimidin-5-yl)-7-methyl-5,6,7,8-tetrahydropyrazolo[1,5-a]pyrido[4,3-d]pyrimidine-3-carboxamide] | ++ (Cisplatin sensitization value >0.02 μM but <0.2 μM)
18 | 10 to 1000 nM | Nc1nn2cc3c(nc2c1C(=O)Nc1cnccc1OC1CCOCC1)CCNC3 [Compound I-8, 2-amino-N-(4-((tetrahydro-2H-pyran-4-yl)oxy)pyridin-3-yl)-5,6,7,8-tetrahydropyrazolo[1,5-a]pyrido[4,3-d]pyrimidine-3-carboxamide] | ++ (Cisplatin sensitization value >0.02 μM but <0.2 μM)
19 | 10 to 1000 nM | CC(C)Oc1ccncc1NC(=O)c1c(N)nn2cc3c(nc12)CCNC3 [Compound I-3, 2-amino-N-(4-isopropoxypyridin-3-yl)-5,6,7,8-tetrahydropyrazolo[1,5-a]pyrido[4,3-d]pyrimidine-3-carboxamide] | +++ (Cisplatin sensitization value of <0.02 μM)
20 | 10 to 1000 nM | Cc1ccncc1NC(=O)c1c(N)nn2cc3c(nc12)CCNC3 [Compound I-1, 2-amino-N-(4-methylpyridin-3-yl)-5,6,7,8-tetrahydropyrazolo[1,5-a]pyrido[4,3-d]pyrimidine-3-carboxamide] | ++ (Cisplatin sensitization value >0.02 μM but <0.2 μM)
21 | 10 to 1000 nM | COc1ccncc1NC(=O)c1c(N)nn2cc3c(nc12)CCN(C1CC1)C3 [Compound I-18, 2-amino-7-cyclopropyl-N-(4-methoxypyridin-3-yl)-5,6,7,8-tetrahydropyrazolo[1,5-a]pyrido[4,3-d]pyrimidine-3-carboxamide] | ++ (Cisplatin sensitization value >0.02 μM but <0.2 μM)
22 | 10 to 1000 nM | COc1ccncc1NC(=O)c1c(N)nn2cc3c(nc12)CCN(C(C)(C)C)C3 [Compound I-29, 2-amino-7-(tert-butyl)-N-(4-methoxypyridin-3-yl)-5,6,7,8-tetrahydropyrazolo[1,5-a]pyrido[4,3-d]pyrimidine-3-carboxamide] | 
